Test results taken from patent US7799830B2, “Cinnamic acid dimers, their preparation and the use thereof for treating neurodegenerative disease” (Korea Institute of Science and Technology, priority 2002, dated 2010).

Experiments:
[1] = test system: mice administered with beta-amyloid; assay: passive avoidance test (learning and memory-retention ability of mice); format: in vivo; settings: mice given compound and beta-amyloid (1-42); 24 h after training; maximum 300 seconds; average of 10 mice; FIG. 1
Description: Four groups of 10 mice aged 4-5 weeks, weighing 20-25 g were used in the experiment. Each sample was administered with 1% DMSO and 1% CMC using a Sonde once a day (samples: A—physiological salin solution; B—beta-amyloid; C—cinnamic acid dimer (example 1) and beta-amyloid). After injecting […] of each sample to the cerebral ventricle 3 consecutive days, passive avoidance test was conducted on the first and second day for following the last injection. All data was attained by the average of 10 mice.
In order to examine the learning and memory-retention ability of a mouse, a passive avoidance test was carried out in accordance with the method described in Song et al, J. Neurochem., 1998, 71, 875. A passive avoidance chamber equipped with a light room and a dark room was prepared, wherein the floor of the dark room was designed to deliver an electrical shock to the test animal. First, a mouse was put in the light room and, upon entering the dark room, an electrical shock of 0.25 mA was given to the animal for 1 second. […] Then, the time it took for the mouse to enter the dark room was measured as a passive avoidance time. The maximum restriction time was set at 300 seconds, i.e., in cases where the mouse took more than 300 seconds to enter the dark room, the passive avoidance time was determined to be 300 seconds.

Spraque-Dawley rats = assay: oral toxicity test of cinnamic acid dimers; format: in vivo
Description: Twenty female and twenty male Spraque-Dawley rats aged 4 weeks were divided into four groups including 5 female and 5 male rats, after being raised in a vivarium of a temperature of 22±3° C., a relative humidity of 50±10%, an illumination of 150-300 Lux for 1 week.
The cinnamic acid dimers prepared in Example 1 were dissolved in corn oil, and the rats of the 4 groups were orally administered with the solution at a dose of 300, 1,000, 3,000 and 10,000 mg/kg once. […] In addition, the rats were killed on the seventh day after administration, dissected, and internal organs were examined with the unaided eye. Daily weight change was measured from the administration day and thus the weight decrease of animals attributed to cinnamic acid dimers was observed.

COc1cc(C=CC(=O)O)ccc1OCCOc1ccc(C=CC(=O)O)cc1OC [Example 1, 1,2-di[2-methoxy-4-(2-carboxylvinyl)]phenoxyethane]
step-through latency (passive avoidance time) compared with mice administered with beta-amyloid only [1]: significantly higher | pathological changes of internal organs at dissection (Spraque-Dawley rats; group administered with 5,000 mg/kg or less, seventh day after administration, unaided eye): No pathological changes were seen with the naked eye | LD50 (Spraque-Dawley rats; single oral dose in corn oil, observed for 7 days, both males and females): 5,000 mg/kg
